From US9605384B2, “Hydrophobic paper, cardboard, and packaging” (STL SUSTAINABLE TECHNOLOGIES, LLC, priority 2010, dated 2017)
“Also recorded” adds a separate entry of the source.

Columns and labels:
[1] = Stability of halosilane in saturated aqueous salt solution; type: physicochemical; conditions: halosilane added to saturated aqueous salt solution
Method: After cooling to room temperature, 25 ml of the saturated salt solution was added to a 50 ml beaker. To this, 1.2 ml of methyltrichlorosilane was slowly added and stirred into the saturated water. […] A piece of maple wood was added to the solution and vigorously stirred. The dissolved methyltrichlorosilane reacted with the wood and produced hydrochloric acid (HCl) gas as a by-product. There was a slight exotherm observed. After 2 minutes, the wood was removed from the water solution and air-dried. […] The water remained tightly beaded up and gradually evaporated after 30 minutes.

[2] = Solubility / miscibility in water; type: physicochemical

SMILES	reaction with water of the saturated salt solution [1]	miscibility with water [2]
C[Si](Cl)(Cl)Cl [methyltrichlorosilane]	did not react with the water; also recorded: no reaction; also recorded: No exotherm or reaction was observed	–
CCCCCCCC[Si](OCC)(OCC)OCC [n-octyltriethoxysilane]	–	not very miscible at any concentration
CO[Si](C)(OC)OC [methyltrimethoxysilane]	–	readily miscible with water
